How the values were obtained:
CobW [1] = biological target: T1, CobW (Rhodobacter capsulatus, UniProt D5AV10); experiment: Co(II) titration UV-vis, nucleotide-induced metal site at […] nm; assay type: binding; conditions: 10 mM HEPES pH 7.0, 100 mM NaCl, 400 mM KCl, anaerobic, indirect read-out, no nucleotide constant
T1 construct: full length, untagged (natural His-rich region), initiator Met cleaved; E. coli BL21(DE3) pLysS; six cysteines
T1 sequence (D5AV10 2-348): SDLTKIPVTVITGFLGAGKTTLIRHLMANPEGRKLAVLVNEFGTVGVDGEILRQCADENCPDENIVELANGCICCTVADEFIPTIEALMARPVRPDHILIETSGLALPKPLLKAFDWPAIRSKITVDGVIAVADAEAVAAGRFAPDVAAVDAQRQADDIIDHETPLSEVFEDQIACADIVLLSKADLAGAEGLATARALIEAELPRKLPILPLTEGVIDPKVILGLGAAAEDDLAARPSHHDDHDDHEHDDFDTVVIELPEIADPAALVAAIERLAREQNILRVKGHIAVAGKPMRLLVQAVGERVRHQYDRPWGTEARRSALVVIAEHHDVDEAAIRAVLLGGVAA

CobW [2] = biological target: T1, CobW; experiment: Co(II) titration UV-vis at […] nm and gel filtration/ICP-MS; assay type: binding; conditions: 10 mM HEPES pH 7.0, 100 mM NaCl, 400 mM KCl, anaerobic, with or without Mg(II) 2.7 mM, indirect read-out, no nucleotide constant
CobW [3] = biological target: T1, CobW; experiment: GTP hydrolysis by anion-exchange chromatography, […] nm; assay type: biochemical; conditions: 20 uM CobW, 200 uM GTP, 2.7 mM Mg(II), 18 uM Co(II), HEPES pH 7.0, anaerobic; slow turnover

For `Nc1nc2c(ncn2[C@@H]2O[C@H](COP(=O)(O)OP(=O)(O)O)[C@@H](O)[C@H]2O)c(=O)[nH]1` [GDP], the “Co(II) titration UV-vis, nucleotide-induced metal site at 339 nm” value (CobW [1]; Mg(II) 2.7 mM) was “Mg^IIGDP-CobW, despite displaying identical absorbance features indicating the persistence of the cysteine-rich tetrahedral site”.

In the case of `Nc1nc2c(ncn2[C@@H]2O[C@H](COP(=O)(O)OP(=O)(O)NP(=O)(O)O)[C@@H](O)[C@H]2O)c(=O)[nH]1` [GMPPNP], the “Co(II) titration UV-vis at 339 nm and gel filtration/ICP-MS” value (CobW [2]) was “binding of guanine nucleotides to CobW promotes tight coordination of two metal ions”.

In the case of `Nc1nc2c(ncn2[C@@H]2O[C@H](COP(=O)(O)OP(=O)(O)OP(=O)(O)O)[C@@H](O)[C@H]2O)c(=O)[nH]1` [GTP], the “Co(II) titration UV-vis, nucleotide-induced metal site at 339 nm” value (CobW [1]; Mg(II) 2.7 mM) was “binding of Mg^II and guanine nucleotides preassembles one distinct Co^II site in CobW” and the “GTP hydrolysis by anion-exchange chromatography, 254 nm” value (CobW [3]) was “CobW-catalysed GTP hydrolysis is sufficiently slow such that nucleotides remain predominantly unhydrolysed”.

For `Nc1nc2c(ncn2[C@@H]2O[C@H](COP(=O)(O)OP(=O)(O)OP(O)(O)=S)[C@@H](O)[C@H]2O)c(=O)[nH]1` [GTPγS], the “Co(II) titration UV-vis, nucleotide-induced metal site at 339 nm” value (CobW [1]; with or without Mg(II) 2.7 mM) was “Equivalent experiments performed with GTP and an alternate stable analogue, GTPγS, generated indistinguishable spectra”.
